Tests used:
Assay type in all cases: cell-based
[1] = test system: NO production in injured bovine cartilage explants; test: Drop tower model: NO production in injured cartilage explants; settings: Bos taurus; at 10 μM; injured cartilage explants
Experimental: (§1) In the second method, the explants were cultured at 37° C., 5% CO2 either in stimulated or non-stimulated conditioned medium as described above or in defined medium containing DMEM supplemented with 1% FCS, 1× insulin-transferrin-sodium selenite media supplement and Antibiotics-Antimycotics in the presence or absence of a cocktail of cytokines containing 10 ng/ml of IL-1β, 100 ng/ml of TNFα and 5 ng/ml of IFN-γ. The compounds were solubilized in H2O, Ethanol or DMSO (10^−2 M) according to suppliers' instructions and further diluted with either conditioned medium stimulated with or without LPS to the required concentrations. DMSO concentrations in the culture media never exceeded 1%. This concentration of DMSO has no effect on cartilage proteoglycan metabolism in response to cytokines. The injured and noninjured cartilage explants were treated with compound-containing medium for three to five days. The specimens were first treated with compounds at desired concentrations at 37° C. for one hour and then incubated for three to five days in the absence or presence of the cocktail of cytokines. At the end of the incubation, media and cartilage samples were harvested and frozen for further analysis.
Nitrate/Nitrite was measured using the Griess reaction (Green L. C. et al., “Analysis of Nitrate, Nitrite, and [15N]nitrate in Biological Fluids,” Anal. Biochem. 126: 131-138 (1982)) with a Nitrate/Nitrite Colorimetric Assay Kit (Cayman Chemicals), as described in Example III above.

[2] = test system: PGE2 synthesis in injured bovine cartilage explants; test: Drop tower model: PGE2 synthesis in injured cartilage explants
Experimental: as §1
PGE2 was measured with STAT-Prostaglandin E2 EIA ELISA kit (Cayman Biochemicals), as described in Example III above. The antibody-PGE2 complex binds to a goat polyclonal anti-mouse IgG that has been previously attached to the well. After washing to remove any unbound reagents, para-nitrophenyl phosphate (pNPP) was added to the well. The product of this enzymatic reaction absorbs strongly at 412 nm. Because of the large range in response to IL-1β and other cytokines, PGE2 values were converted to log scale prior to doing t-tests.

[3] = test system: injured bovine articular cartilage explants in inflammatory medium; test: Drop tower model: GAG degradation in injured cartilage explants; settings: for inhibition at 10 µM: Bos taurus, injured cartilage explants
From the text: In order to assess cartilage breakdown by inflammatory mediators and the effect of antagonists on those mediators, a cartilage impact model (the “drop tower model”) was established using a drop tower device to apply a peak compressive stress to a cartilage sample of about 20-30 MPa over an area of about 11-15 mm^2. Advantages of this model included its clinical relevance due to its potential to mimic several key parameters of osteoarthritis such as inflammatory cell mediators (by co-culturing with inflammatory cells), and induction of trauma to create the cartilage damage.
In the “drop tower design model” cartilage explants were first injured and then cultured in inflammatory medium to mimic the progression of joint impact trauma linked to cartilage degeneration and osteoarthritis. The approach of the model is to artificially produce cellular damage without gross structural alterations, and to determine how the cells respond to such an insult over the ensuing days when treated with or without potential therapeutic agents.
The device comprises a vertical rail that guides a sliding weight from 0.1 kg to 3 kg directly onto a force transducer which is situated at the bottom of the device. A sphere-shaped 2 mm indenter resting on a specimen is located at the bottom of the vertical rail. The indenter is held by a stop screw. The specimen is rigidly attached to a tissue holder underneath the indenter, to avoid side movements, the specimen is rigidly attached to the tissue holder. In this manner, the force transducer transduces a force indirectly onto the specimen. Adjusting the weight of a mass and height from which the mass drops varies the magnitude of the intended impact. For example, a weight mass (e.g., […]) held by a weight holder can be released from a height of e.g., 36 cm and dropped onto the force transducer.
Samples for compound evaluation were tested using either of two different methods to induce inflammatory conditions. One method utilized media conditioned from peripheral blood mononuclear cells (PBMCs) stimulated with LPS (“+LPS”) or non-inflammatory media without LPS (“−LPS”). Another method utilized the absence or presence of a cocktail of cytokines.
In the first method, bovine or human PBMCs were freshly prepared using Ficoll gradient by Lampire Biological Laboratories, Inc. PBMCs in RPMI w/10% FCS at delivery were spun down at 1500 rpm for twenty minutes and the cell pellet was washed twice with 1×PBS to wash off the residual Ficoll. The cells were then resuspended at a density of 1×10^6/ml in RPMI supplemented with 10% FCS, 1× Antibiotics-Antimycotics. The suspension was divided into two aliquots. One aliquot was stimulated with 10 μg/ml of LPS and the other was not stimulated. Both aliquots were then incubated at 37° C., 5% CO2 for twenty-four to seventy-two hours. The conditioned media with or without LPS stimulation are collected, aliquoted, and stored in −80° C. for a maximum of three months. Each conditioned medium was assessed for levels of pro-inflammatory cytokines to ensure their secretion from PBMC. A representative cytokine, IL-6, was assayed by ELISA using a Human IL-6 Quantikine kit and it was shown that the LPS-stimulated medium had at least 10 ng/ml of IL-6, while IL-6 was undetectable in the unstimulated medium.
In the second method, the explants were cultured at 37° C., 5% CO2 either in stimulated or non-stimulated conditioned medium as described above or in defined medium containing DMEM supplemented with 1% FCS, 1× insulin-transferrin-sodium selenite media supplement and Antibiotics-Antimycotics in the presence or absence of a cocktail of cytokines containing 10 ng/ml of IL-1β, 100 ng/ml of TNFα and 5 ng/ml of IFN-γ. The compounds were solubilized in H2O, Ethanol or DMSO (10^−2 M) according to suppliers' instructions and further diluted with either conditioned medium stimulated with or without LPS to the required concentrations. DMSO concentrations in the culture media never exceeded 1%. […]

[4] = test system: bovine chondrocyte pellets / ARC tissues stimulated with IL-1β; test: Chondrocyte pellet / ARC culture model: GAG degradation assay; settings: Table 3B
From the text: A chondrocyte pellet culture model was developed for in vitro high throughput screening of therapeutic compounds for inhibition of IL-1β-stimulated matrix degradation. The chondrocyte pellet culture model can be used to detect various potential therapeutic compounds effective in blocking different processes caused by IL-1β stimulation. For example, IL-1β stimulation results in increased glycosaminoglycan (GAG) degradation, prostaglandin E2 (PGE2) synthesis and total nitrite/nitrate production. Compounds with different mechanisms of action may inhibit the increase of one or two or all three of these parameters. For this reason, screening by, for example, measuring only GAG release would be limited to detection of a specific class of inhibitors and may not detect compounds with diversified mechanisms of function which may be involved in inhibition of the IL-1 stimulated inflammatory process. The development of the chondrocyte pellet culture assay system in a 96-well plate made possible large-scale screening of potential therapeutic compounds with different mechanisms of action.
(§2) Calf articular cartilage was obtained from the knee joints of eight to twelve month old animals and was processed within twenty-four hours after sacrifice. After removal of muscle and ligament, the cartilage was kept moist using phosphate buffer solution (PBS) to prevent tissue dehydration, and was aseptically peeled off from subchondral bone with a scalpel, and the cartilage pieces were further minced into smaller pieces (˜0.3-0.5×˜0.2-0.5 cm cubes). […] Chondrocytes were then enzymatically isolated from the tissue by incubation for overnight at 37° C. with gentle agitation in 0.2% collagenase in Dulbecco's modified eagle media (DMEM). After removal of tissue debris by filtration through cell strainer and the residual collagenase by 3× wash in PBS, cells were finally resuspended at a density of 2.5×10^6 cells/ml in chondrocyte medium. A 1 ml aliquot of the cell suspension was dispensed into either a 15 ml Falcon centrifuge tube or a 96 deep-well plate and centrifuged at 2000×g for five minutes. The chondrocyte pellets were incubated at 37° C. in a humidified atmosphere of 5% CO2 for two to three weeks with a medium change every other day.
(§3) As an alternative to using calf articular cartilage, a commercial Aliginate Recovered Chondrocytes (ARC) system was also used (Articular Engineering, LLC (Northbrook, Ill.)). Use of the commercial system cut down on labor and time in producing chondrocyte pellet. This system produced cartilaginous tissue in vitro using bovine chondrocytes. The first step consisted of culturing chondrocytes in alginate under conditions optimal for the formation of a cell-associated matrix (CM). The second step allowed these cells with their CM, after recovery, to rapidly form and become integrated into a solid mass of cartilage on a porous insert within two weeks.
This tissue is rich in cells surrounded by a cell-associated matrix that is degraded rapidly when the cells are exposed to IL-1. ARC tissues in 3 mm punches at delivery were first dispensed into a 96 deep-well plate, one punch per well, for compound treatment. The subsequent procedures were the same as those used for the chondrocyte pellets.
(§4) Chondrocyte pellets were washed once with 1 ml of Chondrocyte Stimulation Medium and equilibrated in the same medium at room temperature for fifteen to thirty minutes. Compounds were dissolved in H2O, Ethanol or dimethyl sulfoxide (DMSO) (10^−2 M) according to suppliers' instructions and further diluted with Chondrocyte Stimulation Medium to the required concentrations. DMSO concentrations in the culture media should not exceed 1%; this concentration of DMSO has no effect on cartilage proteoglycan metabolism in response to cytokines.
The pellets were first treated with compounds at desired concentrations at 37° C. for one hour and then incubated for three to five days in the absence or presence of 10 ng/ml of IL-1β. […]

[5] = test system: IL-1β-stimulated NO production in bovine chondrocyte pellets / ARC tissues; test: Chondrocyte pellet / ARC culture model: total nitrite and nitrate assay; settings: Table 3B
From the text: as §2, §3, §4
(§5) The pellets were first treated with compounds at desired concentrations at 37° C. for one hour and then incubated for three to five days in the absence or presence of 10 ng/ml of IL-1β. At the end of the incubation, media and pellets were harvested and frozen for further analysis. Pellets were also fixed as needed in 4% (w/v) paraformaldehyde in PBS for histology analysis.
Nitrate/Nitrite levels were measured using the Griess reaction (Green L. C. et al., “Analysis of Nitrate, Nitrite, and [15N]nitrate in Biological Fluids,” Anal. Biochem. 126: 131-138 (1982)) with a Nitrate/Nitrite Colorimetric Assay Kit (Cayman Chemicals), the contents of which are incorporated herein by reference. The assay involved a simple two-step process. The first step involved conversion of nitrate in 50 μl of culture medium to nitrite utilizing nitrate reductase in a reaction volume of 100 μl at room temperature for two hours. The second step involved the addition of 50 μl of both Griess Reagent 1 and 2, which converted nitrite into a deep purple azo compound in ten minutes. Photometric measurement of the absorbance at 540 or 550 nm due to this azo chromophore accurately determined nitrite concentration. This assay kit cannot be used for RPMI (Roswell Park Memorial Institute) derived tissue culture medium due to interference with the colorimetric reaction.
(§6) To characterize the relative efficacies among different p38 MAP kinase inhibitors, dose-response curves were generated for both PGE2 and NO assays. […] After one hour of treatment, ARCs were stimulated with or without 7.5 ng/ml IL-1β and continued to incubate for five days before assay. […]

[6] = test system: IL-1β-stimulated PGE2 synthesis in bovine chondrocyte pellets / ARC tissues; test: Chondrocyte pellet / ARC culture model: Prostaglandin E2 assay; settings: Table 3B
From the text: as §2, §3, §4, §5
Prostaglandin E2 (PGE2) was measured with a STAT-Prostaglandin E2 EIA ELISA kit (Cayman Biochemicals). This assay is based on the competition between PGE2 from 50 μl samples and a PGE2-alkaline phosphatase conjugate for a limited amount of PGE2 monoclonal antibody in a reaction volume of 150 μl at room temperature for one hour. The antibody-PGE2 complex bound to a goat polyclonal anti-mouse IgG that had been previously attached to the well. After washing to remove any unbound reagents, para-nitrophenyl phosphate (pNPP) was added to the well. The product of this enzymatic reaction absorbs strongly at 412 nm. Because of the large range in response to IL-1β and other cytokines, PGE2 values were converted to log scale prior to doing t-tests.
as §6, with “assay. The IL-1β-stimulated PGE2 synthesis or NO production was first calculated by subtraction of PGE2/NO levels in the absence of IL-1β from that in the presence of IL-1β.” for “assay.”

Compound | inhibition at 10 µM [1] [%] | PGE2 synthesis (in words) ([2]; 10 μM, cocktail of cytokines (IL-1β, TNF-α, INF-γ), five days) | Inhibition of PGE2 synthesis (in words) ([2]; Table 4) | inhibition at 10 µM [3] [%] | GAG Release, Pellet Assay (in words) [4] | NO Inhibition, Pellet Assay (in words) [5] | PGE2 Inhibition, Pellet Assay (in words) [6] | Inhibition of GAG degradation (in words) ([3]; Table 4, injured cartilage explants, inflammatory conditions)
CNC(=O)[C@H](Cc1ccccc1)NC(=O)[C@H](CC(C)C)[C@H](CSc1cccs1)C(=O)NO [Batimastat, reference compound] | 100 | did not inhibit | No effect | 100 | – | – | – | –
C[C@H]1[C@H](C)CC[C@]2(C(=O)O[C@@H]3O[C@H](CO[C@@H]4O[C@H](CO)[C@@H](O[C@@H]5O[C@@H](C)[C@H](O)[C@@H](O)[C@H]5O)[C@H](O)[C@H]4O)[C@@H](O)[C@H](O)[C@H]3O)CC[C@]3(C)C(=CC[C@@H]4[C@@]5(C)C[C@@H](O)[C@H](O)[C@@](C)(CO)[C@@H]5[C@H](O)C[C@]43C)[C@H]12 [Madecassoside, reference compound] | – | – | – | – | No effect | No effect | No effect | –
CN1C(C(=O)Nc2ccccn2)=C(O)c2ccccc2S1(=O)=O [Proxicam, reference compound] | – | – | – | – | No effect | – | – | No effect
CC(C(=O)O)c1ccc(C(=O)c2ccccc2)s1 (centres unmarked) [Tiaprofenic Acid, reference compound] | – | – | – | 70 | No effect | – | – | –
CC1(C)O[C@@H]2[C@@H](CO[C@@]3(COS(N)(=O)=O)OC(C)(C)O[C@@H]23)O1 [Topramax, reference compound] | – | – | – | – | No effect | No effect | No effect | –

Reference: patent US20090162351A1, “Transdiscal administration of inhibitors of p38 MAP kinase” (DePuy Spine, Inc., priority 2007, published 2009)
